The source of these data is article PMC8236845.

Structures can show the parent of a compound that is named as a salt. Numbered stars: 1 amine (or outer) side, 2 acyl side, 3 side chain; on linkers, the order of the positions; unused ones are H or OH. Bridge positions count the residues as written; N and C are the ends. Square brackets hold non-standard residues; d marks the D form. Peptide text beside a SMILES is read from it. * marks the point of attachment. Orn(4R-OH,5R-OH) = O=C([C@H](C[C@@H](O)[C@@H](O)N[*:3])N[*:1])[*:2]; Tetradecanoyl(10R,12S-Me2) = CC[C@H](C)C[C@H](C)CCCCCCCCC(=O)*; hTyr(3S-OH,4S-OH) = N[C@H](C(=O)O)[C@H](O)[C@@H](O)c1ccc(O)cc1; Gln(3R-OH) = NC(=O)C[C@@H](O)[C@H](N)C(=O)O; Pro(3S-OH) = O=C(O)[C@H]1NCC[C@@H]1O; Hyp = O=C(O)[C@@H]1C[C@@H](O)CN1

For this test, the target named is binding of recombinant, trimeric SARS-CoV-2 spike protein to recombinant human ACE2 (Severe acute respiratory syndrome coronavirus 2, UniProt P0DTC2, K986P/R682G/R683S/R685S/V987P). Description: biochemical. Set-up: species or system SARS-CoV-2 / human. The following applies: for EC50: read-out: EC50 (corrected).

Turning to `CC[C@H](C)C[C@H](C)CCCCCCCCC(=O)N[C@H]1C[C@@H](O)[C@@H](O)NC(=O)[C@@H]2[C@@H](O)CCN2C(=O)[C@H]([C@H](O)CC(N)=O)NC(=O)[C@H]([C@H](O)[C@@H](O)c2ccc(O)cc2)NC(=O)[C@@H]2C[C@@H](O)CN2C(=O)[C@H]([C@@H](C)O)NC1=O` [Pneumocandin B0] ({Tetradecanoyl(10R,12S-Me2)}-[Orn(4R-OH,5R-OH)]T[Hyp][hTyr(3S-OH,4S-OH)][Gln(3R-OH)][Pro(3S-OH)]; lactam 1-C), the “% Inhibition” value worked out at 98% and the EC50 came to 72.8 µM.
On to `CC[C@@H]([C@H](C)O)n1ncn(-c2ccc(N3CCN(c4ccc(OC[C@@H]5CO[C@@](Cn6cncn6)(c6ccc(F)cc6F)C5)cc4)CC3)cc2)c1=O` [Posaconazole], for which the “% Inhibition” value came to 97%.
For the compound `CC[C@@]1(O)C(=O)OCc2c1cc1n(c2=O)Cc2cc3cc(O)ccc3nc2-1` [S-(10)-hydroxycamptothecin, (S)-10-Hydroxycamptothecin], the “% Inhibition” value is on record as 100%.
The same measure, in the same setting: the figure for `CO[C@H]1C[C@H](O[C@@H]2/C(C)=C/C[C@@H]3C[C@@H](C[C@]4(CC[C@H](C)[C@@H](C5CCCCC5)O4)O3)OC(=O)[C@@H]3C=C(C)/C(=N/O)[C@H]4OC/C(=C\C=C\[C@@H]2C)[C@]43O)O[C@@H](C)[C@@H]1O` [Selamectin] is 97%.
For `CNC(=O)c1cc(Oc2ccc(NC(=O)Nc3ccc(Cl)c(C(F)(F)F)c3)cc2)ccn1` [Sorafenib Tosylate], the “% Inhibition, Screen” value is on record as 21%.
In the case of `CN1CC(=O)N2[C@H](c3ccc4c(c3)OCO4)c3[nH]c4ccccc4c3C[C@@H]2C1=O` [Tadalafil], the “% Inhibition” value amounted to 96%.
Still for that read-out and setting: the figure for `CO[C@H]1C[C@@H]2CC[C@@H](C)[C@@](O)(O2)C(=O)C(=O)N2CCCC[C@H]2C(=O)O[C@H]([C@H](C)C[C@@H]2CC[C@@H](OC(=O)C(C)(CO)CO)[C@H](OC)C2)CC(=O)[C@H](C)/C=C(\C)[C@@H](O)[C@@H](OC)C(=O)[C@H](C)C[C@H](C)/C=C/C=C/C=C/1C` [Temsirolimus (CCI-779, NSC 683864), Temsirolimus] is 96%; for `COc1cc([C@@H]2c3cc4c(cc3[C@@H](O[C@@H]3O[C@@H]5CO[C@@H](c6cccs6)O[C@H]5[C@H](O)[C@H]3O)[C@H]3COC(=O)[C@H]23)OCO4)cc(OC)c1O` [Teniposide] it is 97%; for `C=C(NC(=O)C(=C)NC(=O)c1csc(C2=N[C@@H]3c4csc(n4)[C@H]4NC(=O)c5csc(n5)[C@H]([C@](C)(O)[C@@H](C)O)NC(=O)[C@H]5CSC(=N5)/C(=C/C)NC(=O)[C@H]([C@@H](C)O)NC(=O)c5csc(n5)[C@]3(CC2)NC(=O)[C@H](C)NC(=O)C(=C)NC(=O)[C@H](C)NC(=O)[C@H]([C@@H](C)CC)N[C@@H]2C=Cc3c([C@H](C)O)cc(nc3[C@H]2O)C(=O)O[C@@H]4C)n1)C(N)=O` [Thiostrepton] it is 99%.
As for `CCOC(=O)c1c(N)sc2c1CCN(Cc1ccccc1)C2.Cl` [Tinoridine Hydrochloride], the “% Inhibition” value is reported as 90% and the EC50 worked out at 257 µM.
As for `Cn1cncc1[C@@](N)(c1ccc(Cl)cc1)c1ccc2c(c1)c(-c1cccc(Cl)c1)cc(=O)n2C` [Tipifarnib], the “% Inhibition” value is given as 98%.
For the compound `CC[C@@]1(O)C(=O)OCc2c1cc1n(c2=O)Cc2cc3c(CN(C)C)c(O)ccc3nc2-1` [Topotecan], the “inhibition of spike-ACE2 binding in the screen” value is given as “did not inhibit”.
On to `NC1CCN(c2nc3c(cc2F)c(=O)c(C(=O)O)cn3-c2ccc(F)cc2F)C1` (centres unmarked) [Tosufloxacin (P-Toluenesulfonic Acid), Tosufloxacin], for which the “% Inhibition” value is 97%.
Take `Nc1nc(N)c2nc(-c3ccccc3)c(N)nc2n1` [Triamterene]: the “% Inhibition” value worked out at 91%.
The same measure, in the same setting: under `COC[C@H]1C[C@@H](c2nc(-c3ccc4c(c3)COc3cc5c(ccc6nc([C@@H]7CC[C@H](C)N7C(=O)[C@@H](NC(=O)OC)C(C)C)[nH]c65)cc3-4)c[nH]2)N(C(=O)[C@H](NC(=O)OC)c2ccccc2)C1` [Velpatasvir] stands 93%.
Same read-out and setting: the figure for `N#Cc1ccc2[nH]cc(CCCCN3CCN(c4ccc5oc(C(N)=O)cc5c4)CC3)c2c1` [Vilazodone HCl] is 99%.
Take `CO[C@H]1C[C@@H]2CC[C@@H](C)[C@@](O)(O2)C(=O)C(=O)N2CCCC[C@H]2C(=O)O[C@H]([C@H](C)C[C@@H]2CC[C@H](n3cnnn3)[C@H](OC)C2)CC(=O)[C@H](C)/C=C(\C)[C@@H](O)[C@@H](OC)C(=O)[C@H](C)C[C@H](C)/C=C/C=C/C=C/1C` [Zotarolimus(ABT-578), Zotarolimus]: the “% Inhibition” value is recorded as 96%.
With Avermectin B1, the “% Inhibition” value turned out to be 98%.
As to Cefotiam Hexetil Hydrochloride, the “% Inhibition” value is 99% and the EC50 turned out to be 37.3 µM.
Regarding Ivermectin, the “% inhibition in first-round screen” value was determined as 89%.
